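Exposure lasted 48 hours, with cells grown in 96-well plates and compounds tested at five concentrations. The concentration for 50% growth inhibition is given as GI50.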 Calls of active or inactive are those of the source. No stated cut-off is given here; in the data, active = GI50 up to about 1.1 µM and inactive = higher.
Experiments:
Assay in all cases: NCI-60 cell line screen, 48 h
SF-295 = system: SF-295
UACC-62 = system: UACC-62
DU-145 = system: DU-145
SNB-75 = system: SNB-75
HCT-15 = system: HCT-15
A549 = system: A549
SK-MEL-5 = system: SK-MEL-5
CAKI-1 = system: CAKI-1
BT-549 = system: BT-549
OVCAR-4 = system: OVCAR-4
SNB-19 = system: SNB-19
KM12 = system: KM12
RXF 393 = system: RXF 393
OVCAR-5 = system: OVCAR-5
TK-10 = system: TK-10
NCI-H23 = system: NCI-H23
M14 = system: M14
OVCAR-3 = system: OVCAR-3
U-251 = system: U-251
HOP-62 = system: HOP-62
MCF7 = system: MCF7
HCT-116 = system: HCT-116
ACHN = system: ACHN
SW-620 = system: SW-620
NCI/ADR-RES = system: NCI/ADR-RES
PC-3 = system: PC-3
SF-268 = system: SF-268
HT-29 = system: HT-29
RPMI-8226 = system: RPMI-8226
NCI-H460 = system: NCI-H460
EKVX = system: EKVX
SK-MEL-28 = system: SK-MEL-28
SN12C = system: SN12C
786-0 = system: 786-0
MDA-MB-435 = system: MDA-MB-435
A498 = system: A498
UO-31 = system: UO-31
NCI-H522 = system: NCI-H522
COLO 205 = system: COLO 205
MDA-N = system: MDA-N
K562 = system: K562
MOLT-4 = system: MOLT-4
OVCAR-8 = system: OVCAR-8
T47D = system: T47D
MDA-MB-231 = system: MDA-MB-231
SK-OV-3 = system: SK-OV-3
Hs-578T = system: Hs-578T
SK-MEL-2 = system: SK-MEL-2
SF-539 = system: SF-539
UACC-257 = system: UACC-257
LOX IMVI = system: LOX IMVI
Malme-3M = system: Malme-3M
HOP-92 = system: HOP-92
NCI-H226 = system: NCI-H226
IGROV-1 = system: IGROV-1
HL-60 = system: HL-60
CCRF-CEM = system: CCRF-CEM
HCC 2998 = system: HCC 2998

## O=S(=O)(Cc1ccccc1)c1nnc(S(=O)(=O)c2ccc(Cl)cc2)s1
SF-295
  GI50: 24.1 µM (inactive)
UACC-62
  GI50: 27 µM (inactive)
DU-145
  GI50: 17 µM (inactive)
SNB-75
  GI50: 16.6 µM (inactive)
HCT-15
  GI50: 20.9 µM
A549
  GI50: 27.5 µM (inactive)
SK-MEL-5
  GI50: 17.9 µM (inactive)
CAKI-1
  GI50: 24.3 µM (inactive)
BT-549
  GI50: 20 µM (inactive)
OVCAR-4
  GI50: 24.4 µM (inactive)
SNB-19
  GI50: 19.6 µM (inactive)
KM12
  GI50: 25.7 µM (inactive)
RXF 393
  GI50: 17.3 µM (inactive)
OVCAR-5
  GI50: 24.8 µM (inactive)
TK-10
  GI50: 12.2 µM (inactive)
NCI-H23
  GI50: 23.3 µM (inactive)
M14
  GI50: 17.7 µM (inactive)
OVCAR-3
  GI50: 20.5 µM (inactive)
U-251
  GI50: 33 µM (inactive)
HOP-62
  GI50: 21.4 µM (inactive)
MCF7
  GI50: 48 µM (inactive)
HCT-116
  GI50: 19.5 µM (inactive)
ACHN
  GI50: 19.4 µM (inactive)
SW-620
  GI50: 23.9 µM (inactive)
NCI/ADR-RES
  GI50: 25 µM (inactive)
PC-3
  GI50: 21.8 µM (inactive)
SF-268
  GI50: 19.5 µM (inactive)
HT-29
  GI50: 22.5 µM (inactive)
RPMI-8226
  GI50: 15.9 µM (inactive)
NCI-H460
  GI50: 21.2 µM (inactive)
EKVX
  GI50: 25.6 µM (inactive)
SK-MEL-28
  GI50: 19.9 µM (inactive)
SN12C
  GI50: 20.2 µM (inactive)
786-0
  GI50: 23.6 µM (inactive)
MDA-MB-435
  GI50: 27.1 µM (inactive)
A498
  GI50: 22 µM (inactive)
UO-31
  GI50: 21.3 µM (inactive)
NCI-H522
  GI50: 14 µM (inactive)
COLO 205
  GI50: 16 µM (inactive)
MDA-N
  GI50: 18.1 µM (inactive)
K562
  GI50: 32.2 µM (inactive)
MOLT-4
  GI50: 3.39 µM (inactive)
OVCAR-8
  GI50: 19 µM (inactive)
T47D
  GI50: 31.6 µM (inactive)
MDA-MB-231
  GI50: 34.8 µM (inactive)
SK-OV-3
  GI50: 23.3 µM (inactive)
Hs-578T
  GI50: 18.1 µM (inactive)
SK-MEL-2
  GI50: 22.8 µM (inactive)
SF-539
  GI50: 18.5 µM (inactive)
UACC-257
  GI50: 19.9 µM (inactive)

## OCC(O)CNc1ncnc2ccccc12 (stereo unspecified)
LOX IMVI
  GI50: > 100 µM (inactive)
SF-295
  GI50: > 100 µM (inactive)
UACC-62
  GI50: > 100 µM (inactive)
DU-145
  GI50: > 100 µM (inactive)
SNB-75
  GI50: > 100 µM (inactive)
Malme-3M
  GI50: > 100 µM (inactive)
HCT-15
  GI50: > 100 µM
A549
  GI50: > 100 µM (inactive)
SK-MEL-5
  GI50: > 100 µM (inactive)
CAKI-1
  GI50: > 100 µM (inactive)
BT-549
  GI50: > 100 µM (inactive)
HOP-92
  GI50: > 100 µM (inactive)
OVCAR-4
  GI50: > 100 µM (inactive)
SNB-19
  GI50: > 100 µM (inactive)
KM12
  GI50: > 100 µM (inactive)
RXF 393
  GI50: > 100 µM (inactive)
OVCAR-5
  GI50: > 100 µM (inactive)
TK-10
  GI50: > 100 µM (inactive)
NCI-H23
  GI50: > 100 µM (inactive)
M14
  GI50: > 100 µM (inactive)
OVCAR-3
  GI50: > 100 µM (inactive)
U-251
  GI50: > 100 µM (inactive)
HOP-62
  GI50: > 100 µM (inactive)
MCF7
  GI50: > 100 µM (inactive)
HCT-116
  GI50: > 100 µM (inactive)
ACHN
  GI50: > 100 µM (inactive)
SW-620
  GI50: > 100 µM (inactive)
NCI/ADR-RES
  GI50: > 100 µM (inactive)
NCI-H226
  GI50: > 100 µM (inactive)
PC-3
  GI50: > 100 µM (inactive)
IGROV-1
  GI50: > 100 µM (inactive)
SF-268
  GI50: > 100 µM (inactive)
HT-29
  GI50: > 100 µM (inactive)
RPMI-8226
  GI50: > 100 µM (inactive)
NCI-H460
  GI50: > 100 µM (inactive)
EKVX
  GI50: > 100 µM (inactive)
SK-MEL-28
  GI50: > 100 µM (inactive)
SN12C
  GI50: > 100 µM (inactive)
786-0
  GI50: > 100 µM (inactive)
MDA-MB-435
  GI50: > 100 µM (inactive)
A498
  GI50: > 100 µM (inactive)
UO-31
  GI50: > 100 µM (inactive)
NCI-H522
  GI50: > 100 µM (inactive)
COLO 205
  GI50: > 100 µM (inactive)
MDA-N
  GI50: > 100 µM (inactive)
HL-60
  GI50: > 100 µM (inactive)
K562
  GI50: > 100 µM (inactive)
MOLT-4
  GI50: > 100 µM (inactive)
OVCAR-8
  GI50: > 100 µM (inactive)
T47D
  GI50: > 100 µM (inactive)
MDA-MB-231
  GI50: > 100 µM (inactive)
SK-OV-3
  GI50: > 100 µM (inactive)
CCRF-CEM
  GI50: > 100 µM (inactive)
Hs-578T
  GI50: > 100 µM (inactive)
HCC 2998
  GI50: > 100 µM (inactive)
SK-MEL-2
  GI50: > 100 µM (inactive)
UACC-257
  GI50: > 100 µM (inactive)

## CCOC(=O)c1sc2nc(SC)nc3c2c1NCN3c1ccccc1Cl
LOX IMVI
  GI50: 35.6 µM (inactive)
SF-295
  GI50: 52.6 µM (inactive)
UACC-62
  GI50: 37.4 µM (inactive)
DU-145
  GI50: 75.3 µM (inactive)
SNB-75
  GI50: 24.8 µM (inactive)
Malme-3M
  GI50: 31.8 µM (inactive)
HCT-15
  GI50: 71.1 µM
A549
  GI50: 38.7 µM (inactive)
SK-MEL-5
  GI50: 31.5 µM (inactive)
CAKI-1
  GI50: 50.8 µM (inactive)
BT-549
  GI50: 42.7 µM (inactive)
HOP-92
  GI50: 25.3 µM (inactive)
OVCAR-4
  GI50: 38.5 µM (inactive)
SNB-19
  GI50: 48.3 µM (inactive)
KM12
  GI50: > 100 µM (inactive)
RXF 393
  GI50: 19.3 µM (inactive)
OVCAR-5
  GI50: > 100 µM (inactive)
TK-10
  GI50: 37.8 µM (inactive)
NCI-H23
  GI50: 42.2 µM (inactive)
M14
  GI50: > 100 µM (inactive)
OVCAR-3
  GI50: 84.5 µM (inactive)
U-251
  GI50: 43.8 µM (inactive)
HOP-62
  GI50: 40.9 µM (inactive)
HCT-116
  GI50: 31.8 µM (inactive)
ACHN
  GI50: 55.1 µM (inactive)
SW-620
  GI50: 80.2 µM (inactive)
NCI/ADR-RES
  GI50: 40.2 µM (inactive)
NCI-H226
  GI50: > 100 µM (inactive)
PC-3
  GI50: 29.4 µM (inactive)
IGROV-1
  GI50: 63 µM (inactive)
SF-268
  GI50: 38.7 µM (inactive)
HT-29
  GI50: 72.1 µM (inactive)
RPMI-8226
  GI50: > 100 µM (inactive)
NCI-H460
  GI50: 30.7 µM (inactive)
SK-MEL-28
  GI50: 55.2 µM (inactive)
SN12C
  GI50: > 100 µM (inactive)
786-0
  GI50: 24.3 µM (inactive)
MDA-MB-435
  GI50: > 100 µM (inactive)
A498
  GI50: 37.8 µM (inactive)
UO-31
  GI50: 70.5 µM (inactive)
NCI-H522
  GI50: 26.5 µM (inactive)
COLO 205
  GI50: > 100 µM (inactive)
MDA-N
  GI50: 71.4 µM (inactive)
K562
  GI50: > 100 µM (inactive)
MOLT-4
  GI50: > 100 µM (inactive)
OVCAR-8
  GI50: 31.7 µM (inactive)
T47D
  GI50: 23.7 µM (inactive)
MDA-MB-231
  GI50: 76.4 µM (inactive)
SK-OV-3
  GI50: 56.6 µM (inactive)
CCRF-CEM
  GI50: > 100 µM (inactive)
Hs-578T
  GI50: 35.4 µM (inactive)
HCC 2998
  GI50: 56.5 µM (inactive)
SK-MEL-2
  GI50: 97.3 µM (inactive)
UACC-257
  GI50: 48.8 µM (inactive)

— ChEMBL document CHEMBL1201862, “PubChem BioAssay data set” (2004)
